As a reminder, the Ki is the dissociation constant of the complex between target and ligand, obtained from inhibition or displacement.

T1 sequence (P30291 whole entry): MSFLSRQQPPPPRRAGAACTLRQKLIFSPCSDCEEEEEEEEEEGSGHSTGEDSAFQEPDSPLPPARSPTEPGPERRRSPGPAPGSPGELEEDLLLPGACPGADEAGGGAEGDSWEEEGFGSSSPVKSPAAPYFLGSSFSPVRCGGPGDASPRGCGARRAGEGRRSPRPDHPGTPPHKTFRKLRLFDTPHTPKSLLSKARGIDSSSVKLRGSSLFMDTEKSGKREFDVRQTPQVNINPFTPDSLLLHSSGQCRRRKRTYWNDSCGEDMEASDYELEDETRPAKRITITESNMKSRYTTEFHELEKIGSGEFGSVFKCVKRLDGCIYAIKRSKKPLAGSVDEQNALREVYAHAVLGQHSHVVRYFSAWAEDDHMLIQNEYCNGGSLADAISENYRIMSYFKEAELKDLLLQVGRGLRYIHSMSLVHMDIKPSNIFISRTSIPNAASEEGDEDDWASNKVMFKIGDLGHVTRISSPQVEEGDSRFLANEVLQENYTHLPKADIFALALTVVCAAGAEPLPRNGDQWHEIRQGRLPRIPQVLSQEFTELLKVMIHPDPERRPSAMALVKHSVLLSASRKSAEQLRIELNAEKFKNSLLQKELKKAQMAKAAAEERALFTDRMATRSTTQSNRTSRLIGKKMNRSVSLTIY

This assay addresses T1, GST-tagged-Wee1 kinase (Homo sapiens, UniProt P30291).
T1 construct: purchased Carnabio (Carna Biosciences) 05-177
The assay is described as follows: Wee1 time-resolved fluorescence equilibrium binding assay (displacement of Oregon Green-labeled ATP-competitive kinase probe). The settings on record: read-out: Wee-1 inhibition (Ki). The method in brief:
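Ki values derive from competitive displacement, under equilibrium, of a fast-reversible ATP-site Oregon Green kinase probe from GST-tagged Wee1, detected by time-resolved fluorescence.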
Turning to `Cc1cc(Nc2ncc3c(=O)n(-c4c(Cl)cccc4Cl)c4nccn4c3n2)ccc1N1CCCN(C)CC1` [Example 74, 6-(2,6-dichlorophenyl)-2-{[3-methyl-4-(4-methyl-1,4-diazepan-1-yl)phenyl]amino}imidazo[1,2-a]pyrimido[5,4-e]pyrimidin-5(6H)-one], the Ki was below 10 nM.

For `O=c1c2cnc(Nc3ccc(N4CCNCC4)c(C(F)(F)F)c3)nc2n2ccnc2n1-c1ccccc1Cl` [Example 75, 6-(2-chlorophenyl)-2-{[4-(piperazin-1-yl)-3-(trifluoromethyl)phenyl]amino}imidazo[1,2-a]pyrimido[5,4-e]pyrimidin-5(6H)-one], the inhibition constant (Ki) was below 10 nM.

Turning to `O=c1c2cnc(Nc3ccc(OC[C@@H]4CCCN4)cc3)nc2n2ccnc2n1-c1ccccc1Cl` [Example 76, 6-(2-chlorophenyl)-2-({4-[(2S)-pyrrolidin-2-ylmethoxy]phenyl}amino)imidazo[1,2-a]pyrimido[5,4-e]pyrimidin-5(6H)-one], the inhibition constant (Ki) was below 10 nM.

Take `Cc1cc(OCCCN2CCN(C)CC2)ccc1Nc1ncc2c(=O)n(-c3ccccc3Cl)c3nccn3c2n1` [Example 77, 6-(2-chlorophenyl)-2-({2-methyl-4-[3-(4-methylpiperazin-1-yl)propoxy]phenyl}amino)imidazo[1,2-a]pyrimido[5,4-e]pyrimidin-5(6H)-one]: the Ki was above 100 nM.

In the case of `O=c1c2cnc(Nc3ccc(CN4CCOCC4)cc3)nc2n2ccnc2n1-c1ccccc1Cl` [Example 78, 6-(2-chlorophenyl)-2-{[4-(morpholin-4-ylmethyl)phenyl]amino}imidazo[1,2-a]pyrimido[5,4-e]pyrimidin-5(6H)-one], the inhibition constant (Ki) is below 10 nM.

Take `O=c1c2cnc(Nc3ccc(Cn4ccnc4)cc3)nc2n2ccnc2n1-c1ccccc1Cl` [Example 79, 6-(2-chlorophenyl)-2-{[4-(1H-imidazol-1-ylmethyl)phenyl]amino}imidazo[1,2-a]pyrimido[5,4-e]pyrimidin-5(6H)-one]: the Ki is below 10 nM.

As to `O=c1c2cnc(Nc3ccc(-n4ccnc4)cc3)nc2n2ccnc2n1-c1ccccc1Cl` [Example 80, 6-(2-chlorophenyl)-2-{[4-(1H-imidazol-1-yl)phenyl]amino}imidazo[1,2-a]pyrimido[5,4-e]pyrimidin-5(6H)-one], the Ki is 10 to 100 nM.

Take `O=c1c2cnc(Nc3ccc(N4CCNCC4)nc3)nc2n2ccnc2n1-c1ccccc1Cl` [Example 81, 6-(2-chlorophenyl)-2-{[6-(piperazin-1-yl)pyridin-3-yl]amino}imidazo[1,2-a]pyrimido[5,4-e]pyrimidin-5(6H)-one]: the Ki is below 10 nM.

Take `CN1CCN(CCCOc2cccc(Nc3ncc4c(=O)n(-c5ccccc5Cl)c5nccn5c4n3)c2)CC1` [Example 82, 6-(2-chlorophenyl)-2-({3-[3-(4-methylpiperazin-1-yl)propoxy]phenyl}amino)imidazo[1,2-a]pyrimido[5,4-e]pyrimidin-5(6H)-one]: the inhibition constant Ki was in the range of 10 to 100 nM.

Regarding `O=c1c2cnc(Nc3cccc(OCCCN4CCCCC4)c3)nc2n2ccnc2n1-c1ccccc1Cl` [Example 83, 6-(2-chlorophenyl)-2-({3-[3-(piperidin-1-yl)propoxy]phenyl}amino)imidazo[1,2-a]pyrimido[5,4-e]pyrimidin-5(6H)-one], the inhibitory constant (Ki) is 10 to 100 nM.

Consider `O=c1c2cnc(Nc3ccccc3)nc2n2ccnc2n1-c1c(Cl)cccc1Cl` [Example 84, 6-(2,6-dichlorophenyl)-2-(phenylamino)imidazo[1,2-a]pyrimido[5,4-e]pyrimidin-5(6H)-one], for which the inhibitory constant (Ki) was below 10 nM.

`COc1cc(Nc2ncc3c(=O)n(-c4ccccc4Cl)c4nccn4c3n2)ccc1OCCNC(C)C` [Example 85, 6-(2-chlorophenyl)-2-({3-methoxy-4-[2-(propan-2-ylamino)ethoxy]phenyl}amino)imidazo[1,2-a]pyrimido[5,4-e]pyrimidin-5(6H)-one]: the Ki was below 10 nM.

Regarding `CC(C)NCCOc1ccc(Nc2ncc3c(=O)n(-c4ccccc4Cl)c4nccn4c3n2)cc1Cl` [Example 86, 6-(2-chlorophenyl)-2-({3-chloro-4-[2-(propan-2-ylamino)ethoxy]phenyl}amino)imidazo[1,2-a]pyrimido[5,4-e]pyrimidin-5(6H)-one], the Ki was below 10 nM.

Regarding `O=c1c2cnc(Nc3ccc(CO)cc3)nc2n2ccnc2n1-c1ccccc1Cl` [Example 87, 6-(2-chlorophenyl)-2-{[4-(hydroxymethyl)phenyl]amino}imidazo[1,2-a]pyrimido[5,4-e]pyrimidin-5(6H)-one], the inhibitory constant (Ki) was in the range of 10 to 100 nM.

On to `O=c1c2cnc(Nc3ccc(Cn4cccn4)cc3)nc2n2ccnc2n1-c1ccccc1Cl` [Example 88, 6-(2-chlorophenyl)-2-{[4-(1H-pyrazol-1-ylmethyl)phenyl]amino}imidazo[1,2-a]pyrimido[5,4-e]pyrimidin-5(6H)-one], for which the Ki is below 10 nM.

For `O=c1c2cnc(Nc3ccc(-n4cccn4)cc3)nc2n2ccnc2n1-c1ccccc1Cl` [Example 89, 6-(2-chlorophenyl)-2-{[4-(1H-pyrazol-1-yl)phenyl]amino}imidazo[1,2-a]pyrimido[5,4-e]pyrimidin-5(6H)-one], the Ki lay in the range of 10 to 100 nM.

`O=c1c2cnc(Nc3ccc4c(c3)CNCC43CC3)nc2n2ccnc2n1-c1ccccc1Cl` [Example 90, 6-(2-chlorophenyl)-2-(2′,3′-dihydro-1′H-spiro[cyclopropane-1,4′-isoquinolin]-7′-ylamino)imidazo[1,2-a]pyrimido[5,4-e]pyrimidin-5(6H)-one]: the Ki was below 10 nM.

On to `CC(=O)N1Cc2cc(Nc3ncc4c(=O)n(-c5ccccc5Cl)c5nccn5c4n3)ccc2C2(CC2)C1` [Example 91, 2-[(2′-acetyl-2′,3′-dihydro-1′H-spiro[cyclopropane-1,4′-isoquinolin]-7′-yl)amino]-6-(2-chlorophenyl)imidazo[1,2-a]pyrimido[5,4-e]pyrimidin-5(6H)-one], for which the inhibition constant (Ki) is below 10 nM.

`CN1CCCc2cc(Nc3ncc4c(=O)n(-c5ccccc5Cl)c5nccn5c4n3)ccc21` [Example 92, 6-(2-chlorophenyl)-2-[(1-methyl-1,2,3,4-tetrahydroquinolin-6-yl)amino]imidazo[1,2-a]pyrimido[5,4-e]pyrimidin-5(6H)-one]: the Ki was below 10 nM.

`CN(C)CCN1CCc2cc(Nc3ncc4c(=O)n(-c5ccccc5Cl)c5nccn5c4n3)ccc21` [Example 93, 6-(2-chlorophenyl)-2-({1-[2-(dimethylamino)ethyl]-2,3-dihydro-1H-indol-5-yl}amino)imidazo[1,2-a]pyrimido[5,4-e]pyrimidin-5(6H)-one]: the Ki was below 10 nM.

For `CN(C)C1Cc2ccc(Nc3ncc4c(=O)n(-c5ccccc5Cl)c5nccn5c4n3)cc2C1` (stereo not shown) [Example 94, 6-(2-chlorophenyl)-2-{[2-(dimethylamino)-2,3-dihydro-1H-inden-5-yl]amino}imidazo[1,2-a]pyrimido[5,4-e]pyrimidin-5(6H)-one], the Ki was below 10 nM.

As for `Cc1cc(Nc2ncc3c(=O)n(-c4c(F)cccc4Cl)c4nccn4c3n2)ccc1N1CCCN(C)CC1` [Example 96, 6-(2-chloro-6-fluorophenyl)-2-{[3-methyl-4-(4-methyl-1,4-diazepan-1-yl)phenyl]amino}imidazo[1,2-a]pyrimido[5,4-e]pyrimidin-5(6H)-one], the inhibition constant Ki was below 10 nM.

Consider `CN1Cc2cc(Nc3ncc4c(=O)n(-c5c(F)cccc5Cl)c5nccn5c4n3)ccc2C(C)(C)C1` [Example 97, 6-(2-chloro-6-fluorophenyl)-2-[(2,4,4-trimethyl-1,2,3,4-tetrahydroisoquinolin-7-yl)amino]imidazo[1,2-a]pyrimido[5,4-e]pyrimidin-5(6H)-one], for which the Ki was below 10 nM.

With `CN1CCN(c2ccc(Nc3ncc4c(=O)n(-c5c(F)cccc5F)c5nccn5c4n3)cc2)CC1` [Example 98, 6-(2,6-difluorophenyl)-2-{[4-(4-methylpiperazin-1-yl)phenyl]amino}imidazo[1,2-a]pyrimido[5,4-e]pyrimidin-5(6H)-one], the Ki lay in the range of 10 to 100 nM.

For `O=c1c2cnc(Nc3ccc4c(c3)CN(CCO)CC4)nc2n2ccnc2n1-c1ccccc1Cl` [Example 99, 6-(2-chlorophenyl)-2-{[2-(2-hydroxyethyl)-1,2,3,4-tetrahydroisoquinolin-7-yl]amino}imidazo[1,2-a]pyrimido[5,4-e]pyrimidin-5(6H)-one], the inhibition constant (Ki) was below 10 nM.

Regarding `CN1CCCN(c2ccc(Nc3ncc4c(=O)n(-c5ccccc5Cl)c5nccn5c4n3)cc2CO)CC1` [Example 100, 6-(2-chlorophenyl)-2-{[3-(hydroxymethyl)-4-(4-methyl-1,4-diazepan-1-yl)phenyl]amino}imidazo[1,2-a]pyrimido[5,4-e]pyrimidin-5(6H)-one], the inhibitory constant (Ki) was below 10 nM.

With `O=c1c2cnc(Nc3ccc(N4CCN5CCCC5C4)cc3)nc2n2ccnc2n1-c1ccccc1Cl` (stereo not shown) [Example 101, 6-(2-chlorophenyl)-2-{[4-(hexahydropyrrolo[1,2-a]pyrazin-2(1H)-yl)phenyl]amino}imidazo[1,2-a]pyrimido[5,4-e]pyrimidin-5(6H)-one], the inhibitory constant (Ki) is below 10 nM.

As for `Cc1cc(Nc2ncc3c(=O)n(-c4ccccc4Cl)c4nccn4c3n2)ccc1O` [Example 102, 6-(2-chlorophenyl)-2-[(4-hydroxy-3-methylphenyl)amino]imidazo[1,2-a]pyrimido[5,4-e]pyrimidin-5(6H)-one], the Ki is below 10 nM.

`CCN(CC)CCCOc1ccc(Nc2ncc3c(=O)n(-c4ccccc4Cl)c4nccn4c3n2)cc1C` [Example 103, 6-(2-chlorophenyl)-2-({4-[3-(diethylamino)propoxy]-3-methylphenyl}amino)imidazo[1,2-a]pyrimido[5,4-e]pyrimidin-5(6H)-one]: the Ki is below 10 nM.

Turning to `Cc1cc(Nc2ncc3c(=O)n(-c4ccccc4Cl)c4nccn4c3n2)ccc1N1CCNCC1` [Example 104, 6-(2-chlorophenyl)-2-{[3-methyl-4-(piperazin-1-yl)phenyl]amino}imidazo[1,2-a]pyrimido[5,4-e]pyrimidin-5(6H)-one], the inhibition constant (Ki) is below 10 nM.

On to `Cc1cc(Nc2ncc3c(=O)n(-c4ccccc4Cl)c4nccn4c3n2)ccc1N1CCCNCC1` [Example 105, 6-(2-chlorophenyl)-2-{[4-(1,4-diazepan-1-yl)-3-methylphenyl]amino}imidazo[1,2-a]pyrimido[5,4-e]pyrimidin-5(6H)-one], for which the Ki is below 10 nM.

(Values after patent publication US8710065B2, “Tricyclic inhibitors of kinases” (AbbVie Inc., priority 2011, dated 2014).)
